In assay [1] the target is T1, serotonin transporter (SERT) (Rattus norvegicus, UniProt P31652).
T1 construct: Freshly removed whole brain minus cerebellum and caudate was homogenized; from tissue; host or cells: rat whole brain minus cerebellum and caudate, synaptosomes
The assay is described as follows: Serotonin reuptake ([^3H]serotonin uptake) inhibition in rat brain synaptosomes. It counts as biochemical.

The target in assay [2] is norepinephrine transporter (NET) (Rattus norvegicus, UniProt Q9WTR4). The assay is described as follows: Norepinephrine reuptake ([^3H]norepinephrine uptake) inhibition in rat brain synaptosomes. The settings on record: for NE Uptake Emax (% I ± SD): maximal inhibition from dose-response fit.
In the next assay the target is T2, DAT (Rattus norvegicus, UniProt P23977).
T2 construct: from tissue; host or cells: rat caudate membranes
T2 sequence (P23977 whole entry): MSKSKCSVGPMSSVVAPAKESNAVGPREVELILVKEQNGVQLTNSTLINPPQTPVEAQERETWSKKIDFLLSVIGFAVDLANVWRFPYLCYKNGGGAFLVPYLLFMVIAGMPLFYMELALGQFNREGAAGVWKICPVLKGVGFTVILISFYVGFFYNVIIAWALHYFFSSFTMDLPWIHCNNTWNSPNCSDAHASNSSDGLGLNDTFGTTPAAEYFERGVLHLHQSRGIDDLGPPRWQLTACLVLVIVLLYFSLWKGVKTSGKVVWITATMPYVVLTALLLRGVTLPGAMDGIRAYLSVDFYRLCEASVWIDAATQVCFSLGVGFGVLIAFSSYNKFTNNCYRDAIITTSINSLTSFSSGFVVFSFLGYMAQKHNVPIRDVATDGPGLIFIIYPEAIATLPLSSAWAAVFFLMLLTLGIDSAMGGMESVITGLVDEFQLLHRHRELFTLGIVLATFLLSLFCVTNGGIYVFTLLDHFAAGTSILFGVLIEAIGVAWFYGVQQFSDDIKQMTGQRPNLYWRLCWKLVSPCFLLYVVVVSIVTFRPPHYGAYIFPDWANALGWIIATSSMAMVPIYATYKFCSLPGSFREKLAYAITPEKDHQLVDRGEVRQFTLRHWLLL
In words: Dopamine transporter binding, inhibition of [^3H]WIN35428 binding in rat caudate membranes. The settings on record: for EC50: read-out: WIN Binding EC50 (μM ± SD). Summed up: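 Rat caudate membranes in 50 mM sodium phosphate pH 7.4 with protease inhibitors, EDTA/EGTA and BSA were incubated with 1 nM [^3H]WIN35428 and test drug for 2 hours at 25° C. Filtration-retained tritium measured; three pooled experiments fit to dose-response to give Emax and EC50.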

Assay [3] concerns the target T3, dopamine transporter (DAT) (Rattus norvegicus, UniProt P23977). In words: Dopamine transporter-mediated [^3H]MPP^+ release, shift of D-amphetamine-induced release, rat caudate synaptosomes. It counts as biochemical. Also noted: Freshly removed caudate was homogenized in 10% ice-cold sucrose; from tissue; host or cells: rat caudate synaptosomes.
The target in assay [4] is T3, dopamine transporter (DAT). The assay is described as follows: Dopamine reuptake ([^3H]dopamine uptake) inhibition in rat brain synaptosomes.
Procedure: Freshly removed caudate was homogenized in 10% ice-cold sucrose with 12 strokes of a hand-held Potter-Elvehj em homogenizer followed by centrifugation at 1000×g for 10 min. The supernatants were saved on ice and used immediately. Transporter activity was assessed using 5 nM [^3H]dopamine. […] The selectivity of the uptake assay for dopamine active transporter (DAT) was optimized by including 100 nM citalopram and 100 nM desipramine as blockers of serotonin transporter (SERT) and norepinephrine transporter (NET) in the sucrose solution and assay buffer. Uptake inhibition assays were conducted at 25° C. and were initiated by adding 100 μl of tissue to 900 μL assay buffer containing test drug and [^3H]dopamine. Test drugs were diluted in assay buffer containing 1 mg/mL bovine serum albumin. Nonspecific uptake was measured by incubating in the presence of 10 μM indatraline. The reactions were stopped after 15 minutes by rapid vacuum filtration with a cell harvester (BRANDEL) over GF/B filters (Whatman) presoaked in wash buffer maintained at 25° C. (10 mM Tris-HCl, pH 7.4/150 mM NaCl). Filters were rinsed with 6 mL wash buffer and retained tritium was quantified by a MicroBeta liquid scintillation counter (PerkinElmer) after overnight extraction in 0.6 mL of liquid scintillation cocktail (Cytoscint, ICN). The data from three experiments were pooled and fit to a dose-response curve equation (using Kaleidagraph), to yield an Emax and EC50 value.
The data from three experiments were pooled and fit to a dose-response curve equation (using KaleidaGraph; Synergy Software, Reading, Pa.) to yield an Emax and IC50 value.
For assay [5], the target named is T3, dopamine transporter (DAT). In words: Time course of [^3H]DA uptake/accumulation. It counts as biochemical. Also noted: Freshly removed caudate was homogenized in 10% ice-cold sucrose; from tissue; host or cells: rat caudate synaptosomes.
Assay [6] has as its target T3, dopamine transporter (DAT). In words: d-Amphetamine-induced DAT-mediated [^3H]DA release. It counts as biochemical. The arrangement: Freshly removed caudate was homogenized in 10% ice-cold sucrose; from tissue; host or cells: rat caudate synaptosomes. The settings on record: Apparent Kc = [Blocker]/((EC50-2/EC50-1) − 1), negative when shifted EC50 is less than control.

Setting [7] is: mean ± S.D., n = 3, read-out: SERT Uptake IC50.
[8] abbreviates: rat brain synaptosomes, 10 nM [^3H]norepinephrine.
Where [9] appears, read: read-out: NE Uptake EC50 (nM ± SD), rat brain synaptosomes, 10 nM [^3H]norepinephrine, 10 min, 37° C.
Where [10] appears, read: read-out: NET Uptake IC50, mean ± S.D., n = 3.
Where [11] appears, read: inhibition of [3H]WIN35428 binding, mean ± S.D., n = 3.
Where [12] appears, read: DAT Uptake IC50, [3H]DA uptake inhibition, mean ± S.D., n = 3.
Where [13] appears, read: IC50 for DAT Uptake Inhibition, rounded value as listed in Table 10.
Where [14] appears, read: read-out: Emax for DAT Uptake Inhibition.
[15] abbreviates: mean ± S.D., n = 3, read-out: SERT Uptake Emax.
The mark [16] stands for this setting: [3H]MPP+ release, Apparent Kc = [Blocker]/((EC50-2/EC50-1) − 1), negative when shifted EC50 is less than control.
Setting [17] is: apparent Ke from shift of D-amphetamine-induced [^3H]MPP^+ release, compound at the concentration of column 1, read-out: Ke App.
Setting [18] is: 2 h, read-out: DAT Binding εmax.

Where two headings read alike, the source gives them in different places.

T1 sequence (P31652 whole entry): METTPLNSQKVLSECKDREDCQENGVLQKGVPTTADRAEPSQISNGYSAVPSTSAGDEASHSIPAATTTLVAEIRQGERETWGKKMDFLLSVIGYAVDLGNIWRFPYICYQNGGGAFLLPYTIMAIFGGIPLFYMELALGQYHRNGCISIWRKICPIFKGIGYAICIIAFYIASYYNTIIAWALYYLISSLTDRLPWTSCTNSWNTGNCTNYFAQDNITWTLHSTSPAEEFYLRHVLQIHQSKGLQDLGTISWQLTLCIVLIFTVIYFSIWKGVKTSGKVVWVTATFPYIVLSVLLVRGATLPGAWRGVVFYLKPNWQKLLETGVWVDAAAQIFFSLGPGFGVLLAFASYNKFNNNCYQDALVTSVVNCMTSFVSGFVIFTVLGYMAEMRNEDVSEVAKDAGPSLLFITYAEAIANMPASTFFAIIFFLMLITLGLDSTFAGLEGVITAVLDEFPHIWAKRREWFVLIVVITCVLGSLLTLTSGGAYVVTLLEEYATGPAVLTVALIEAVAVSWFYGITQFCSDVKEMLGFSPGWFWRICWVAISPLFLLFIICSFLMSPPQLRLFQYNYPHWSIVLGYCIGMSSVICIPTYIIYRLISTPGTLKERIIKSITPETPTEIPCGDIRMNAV
T3 sequence (P23977 whole entry): as the sequence (P23977 whole entry) above

In the case of `Cl.Fc1ccc2c(NCC(c3ccccc3)c3ccccc3)nc(-c3ccc4nccn4c3)nc2c1` [compound 124, N-(2,2-Diphenylethyl)-7-Fluoro-2-(Imidazo[1,2-A]Pyridin-6-yl)Quinazolin-4-Amine Hydrochloride], the IC50 turned out to be 25 ± 7 nM in assay [1] (setting [7]); 94 ± 22 nM in assay [2] (setting [9]); 94 ± 22 nM in assay [2] (setting [10]); 7.4 ± 1.1 nM in assay [4] (setting [12]); 7 nM in assay [4] (setting [13]). For the same compound, the figures for the Emax in assay [1] (read-out: SERT Uptake Emax), in assay [4] (read-out: DAT Uptake Emax) and in assay [4] (setting [14]) were 49 ± 2%, 69 ± 1% and 69%, respectively. Besides, the “NET Uptake Emax” value in assay [2] (mean ± S.D., n = 3) was 63 ± 3%. The “NE Uptake Emax (% I ± SD)” value in assay [2] (setting [8]) is listed as 63 ± 3 % I. The “DAT Binding IC50” value at DAT (setting [11]) is on record as “Inactive”. Besides, on DAT (setting [11]), the “DAT Binding εmax” value was “Inactive”. The “Apparent Kc” value in assay [3] is on record as 3200 nM. In addition, the Kb in assay [3] turned out to be 3200 nM. For the same compound, in assay [3] (Emax of D-amphetamine for [^3H]MPP^+ release in presence of 200 nM test compound), the “D-Amphetamine Emax (% ± SD)” value amounted to 104 ± 5%.
Take `c1ccc(C(CNc2nc(-c3ccc4nccn4c3)nc3ccccc23)c2ccccc2)cc1` [compound 55, N-(2,2-Diphenylethyl)-2-(Imidazo[1,2-a]Pyridin-6-yl)Quinazolin-4-Amine]: the Emax in assay [1] (setting [15]) was 52 ± 2%; in assay [5] (dose-dependent decrease of maximum [^3H]DA accumulation, read-out: Emax of decrease of the Emax of [^3H]DA accumulation), 69 ± 1%; in assay [5] (maximum level of [^3H]DA accumulation, 1 nM compound 55) it was 89 ± 4; in assay [5] (maximum level of [^3H]DA accumulation, 4 nM compound 55) it was 71 ± 2; in assay [5] (maximum level of [^3H]DA accumulation, 8 nM compound 55), 58 ± 2; in assay [5] (maximum level of [^3H]DA accumulation, 25 nM compound 55), 43 ± 3. The Emax in assay [4] (read-out: DAT Uptake Emax) stood at 68 ± 2%; in assay [4] (setting [14]), 68%. Further, the IC50 in assay [1] (setting [7]) came out at 23 ± 5 nM; in assay [2] (setting [9]), 52 ± 15 nM; in assay [2] (setting [10]), 52 ± 15 nM; in assay [4] (setting [13]), 2 nM; in assay [4] (IC50 for inhibition of DAT uptake, [^3H]DA uptake, text of b784), 2.3 ± 0.4 nM. For the same compound, in assay [1] (partial versus full inhibition), the “efficacy of SERT uptake inhibition, in words” value is recorded as “partial inhibitor”. The “NET Uptake Emax” value in assay [2] (mean ± S.D., n = 3) was determined as 72 ± 4%. Further, in assay [2] (partial versus full inhibition), the “efficacy of NET uptake inhibition, in words” value is listed as “partial inhibitor”. Further, the “NE Uptake Emax (% I ± SD)” value in assay [2] (setting [8]) came out at 72 ± 4 % I. Moreover, the “DAT Binding εmax” value on DAT (setting [11]) is “Inactive”. The Emax at 0.001 µM in assay [5] ([^3H]DA accumulation, 1 nM compound 55, read-out: Inhibition of the Emax value (%)) worked out at 11%. Besides, the Emax at 0.004 µM in assay [5] ([^3H]DA accumulation, 4 nM compound 55, read-out: Inhibition of the Emax value (%)) was 29%. In assay [5] ([^3H]DA accumulation, 8 nM compound 55, read-out: Inhibition of the Emax value (%)), the Emax at 0.008 µM worked out at 42%. Besides, the Emax at 0.025 µM in assay [5] ([^3H]DA accumulation, 25 nM compound 55, read-out: Inhibition of the Emax value (%)) came to 57%. The “effect on the Emax of [^3H]DA accumulation, in words” value in assay [5] (time course of [^3H]DA uptake) is recorded as “decreased the Emax in a dose-dependent manner”. Also, the “Apparent Kc” value in assay [6] was -239 nM; in assay [3] (setting [16]), -368 nM. Also, the “D-Amphetamine Emax (% ± SD)” value in assay [3] (Emax of D-amphetamine for [^3H]MPP^+ release in presence of 50 nM test compound) stood at 103 ± 3%. Besides, in assay [3] (d-amphetamine-induced DAT-mediated [^3H]MPP^+ release, blocking concentration ˜25 times IC50 for DAT uptake inhibition), the “effect on the d-amphetamine Emax value, in words” value is given as “decreased”. For the same compound, the “efficacy of [^3H]DA (DAT) uptake inhibition, in words” value in assay [4] (partial versus full inhibition) is “partial inhibitor”. The “Emax for DAT Uptake Inhibition” value in assay [4] (value as listed in Table 10) is recorded as 68%.
In the case of `c1ccc(C(Nc2nc(-c3ccc4[nH]ccc4c3)nc3ccccc23)c2ccccc2)cc1` [compound 13, N-Benzhydryl-2-(1H-indol-5-yl)quinazolin-4-amine], the IC50 in assay [1] (rat brain synaptosomes, 5 nM [^3H]serotonin, 30 min, 25° C., read-out: 5HT Uptake EC50 (nM ± SD)) amounted to 6380 ± 2640 nM; in assay [2] (setting [9]), 5850 ± 1750 nM; in assay [4] (DA Uptake EC50 (nM ± SD), rat caudate synaptosomes, 5 nM [^3H]dopamine, 15 min, 25° C., three experiments pooled) it was 212 ± 49 nM. For the same compound, the Emax in assay [1] (rat brain synaptosomes, 5 nM [^3H]serotonin, maximal inhibition from dose-response fit, read-out: 5HT Uptake Emax (% I ± SD)) was 56 ± 9%; on DAT (read-out: WIN Binding Emax (% I ± SD)), 77 ± 2%; in assay [4] (read-out: DA Uptake Emax (% I ± SD)), 71 ± 3%. For the same compound, the “NE Uptake Emax (% I ± SD)” value in assay [2] (setting [8]) was found to be 62 ± 5 % I. Moreover, the EC50 (as a rule, the concentration needed to bring the measured effect to its halfway point) on DAT was found to be 2.7 ± 0.3 µM. Moreover, the “D-Amphetamine Emax (% ± SD)” value in assay [3] (Emax of D-amphetamine for [^3H]MPP^+ release in presence of 5000 nM test compound) is 96 ± 3%. Further, the Kb in assay [3] (setting [17]) was determined as 25800 nM.
Regarding `CS(=O)(=O)Nc1ccc(-c2nc(NCC(c3ccccc3)c3ccccc3)c3ccccc3n2)cc1` [SRI-29577], the IC50 in assay [1] (setting [7]) amounted to 20 ± 5 nM; in assay [2] (setting [10]) it was 90 ± 15 nM; in assay [4] (setting [12]), 4.4 ± 0.8 nM; in assay [4] (setting [13]) it was 4 nM. Besides, the “NET Uptake Emax” value in assay [2] (mean ± S.D., n = 3) was found to be 71 ± 2%. Also, the Emax on DAT (setting [18]) is 65 ± 6%; in assay [4] (setting [14]) it was 70%. Moreover, the “Apparent Kc” value in assay [3] (setting [16]) was -553 nM.
In the case of `Cc1cc2nccn2cc1-c1nc(NCC(c2ccccc2)c2ccccc2)c2ccccc2n1` [compound 118, N-(2,2-Diphenylethyl)-2-(7-Methylimidazo[1,2-A]Pyridin-6-yl)Quinazolin-4-Amine], the Emax in assay [1] (setting [15]) is 58 ± 3%; on DAT (setting [18]), 79 ± 3%; in assay [4] (read-out: DAT Uptake Emax), 63 ± 2%; in assay [4] (setting [14]) it was 63%. Also, the IC50 in assay [1] (setting [7]) was determined as 3.2 ± 0.9 nM; in assay [2] (setting [9]), 21 ± 7 nM; in assay [2] (setting [10]), 21 ± 7 nM; in assay [4] (setting [12]) it was 0.5 ± 0.1 nM; in assay [4] (setting [13]) it was 0.5 nM. In addition, in assay [2] (mean ± S.D., n = 3), the “NET Uptake Emax” value was 67 ± 3%. In assay [2] (setting [8]), the “NE Uptake Emax (% I ± SD)” value is 67 ± 3 % I. For the same compound, the “D-Amphetamine Emax (% ± SD)” value in assay [3] (Emax of D-amphetamine for [^3H]MPP^+ release in presence of 12.5 nM test compound) was 104 ± 3%. Also, the “Apparent Kc” value in assay [3] (setting [16]) is given as 267 nM. In assay [3] (setting [17]), the Kb worked out at 267 nM.
For the compound `CN(C)c1ccc(-c2nc(NCC(c3ccccc3)c3ccccc3)c3ccccc3n2)cn1` [compound 69, 2-(6-(Dimethylamino)Pyridin-3-yl)-N-(2,2-Diphenylethyl)Quinazolin-4-Amine], the Emax in assay [1] (setting [15]) amounted to 51 ± 2%; at DAT (setting [18]) it was 83 ± 3%; in assay [4] (read-out: DAT Uptake Emax), 63 ± 3%; in assay [4] (setting [14]), 63%. The IC50 in assay [1] (setting [7]) worked out at 42 ± 12 nM; in assay [2] (setting [9]), 147 ± 63 nM; in assay [2] (setting [10]) it was 147 ± 63 nM; in assay [4] (setting [12]) it was 7.3 ± 2.2 nM; in assay [4] (setting [13]), 7 nM. Also, the “NET Uptake Emax” value in assay [2] (mean ± S.D., n = 3) is reported as 71 ± 6%. Besides, the “NE Uptake Emax (% I ± SD)” value in assay [2] (setting [8]) worked out at 71 ± 6 % I. Also, the EC50 on DAT was found to be 1.2 ± 0.2 µM. Also, the “D-Amphetamine Emax (% ± SD)” value in assay [3] (Emax of D-amphetamine for [^3H]MPP^+ release in presence of 250 nM test compound) was 99 ± 2%. In addition, in assay [3] (setting [16]), the “Apparent Kc” value stood at 912 nM. The Kb in assay [3] (setting [17]) is 912 nM.
